According to patent US20230295152A1 (SENDA BIOSCIENCES, INC., priority 2019, published 2023):
Read-outs that look alike come from different tables or passages of the source.

Legend:
[1] = Caco-2 Permeability Assay; format: in vitro ADME; details: human
Protocol: Preparation of Caco-2 Cells: 50 μL and 25 mL of cell culture medium were added to each well of the Transwell insert and reservoir, respectively. The HTS transwell plates were incubated at 37° C., 5% CO2 for 1 hour before cell seeding. Caco-2 cells were diluted to 6.86×10^5 cells/mL with culture medium and 50 μL of cell suspension were dispensed into the filter well of the 96-well HTS Transwell plate. Cells were cultivated for 14-18 days in a cell culture incubator at 37° C., 5% CO2, 95% relative humidity. Cell culture medium was replaced every other day, beginning no later than 24 hours after initial plating.
Assessment of Cell Monolayer Integrity: Medium was removed from the reservoir and each Transwell insert and replaced with prewarmed fresh culture medium. Transepithelial electrical resistance (TEER) across the monolayer was measured using Millicell Epithelial Volt-Ohm measuring system (Millipore, USA). The Plate was returned to the incubator once the measurement was done. The TEER value was calculated according to the following equation:
TEER measurement(ohms)×Area of membrane(cm^2)=TEER value(ohm·cm^2)
TEER value should be greater than 230 ohm·cm^2, which indicates the well-qualified Caco-2 monolayer.
Preparation of Solutions: 2 mM stock solutions in DMSO of control compounds were prepared and diluted with HBSS (10 mM HEPES, pH 7.4) to get 10 μM working solution. 0.2 mM stock solutions of test compounds in DMSO were prepared and diluted with HBSS (10 mM HEPES, pH 7.4 with 0.5% BSA) to get 1 μM working solution. Metoprolol, erythromycin and cimetidine were used as control compounds.
Performing the Drug Transport Assay: The Caco-2 plate was removed from the incubator. The monolayer was washed twice with pre-warmed HBSS (10 mM HEPES, pH 7.4). The plate was incubated at 37° C. for 30 minutes. To determine the rate of drug transport in the apical to basolateral direction, 125 μL of the working solution was added to the Transwell insert (apical compartment). A 50 μL sample was transferred immediately from the apical compartment to 200 μL of acetonitrile containing IS (100 nM alprazolam, 200 nM Caffeine and 100 nM tolbutamide) in a new 96-well plate as the initial donor sample (A-B) and it was vortexed at 1000 rpm for 10 minutes. The wells in the receiver plate (basolateral compartment) were filled with 235 μL of transport buffer. To determine the rate of drug transport in the basolateral to apical direction, 285 μL of the working solution were added to the receiver plate wells (basolateral compartment). A 50 μL sample was transferred immediately from the basolateral compartment to 200 μL of acetonitrile containing IS (100 nM alprazolam, 200 nM Caffeine and 100 nM tolbutamide) in a new 96-well plate as the initial donor sample (B-A) and it was vortexed at 1000 rpm for 10 minutes. The Transwell insert (apical compartment) was filled with 75 μL of transport buffer. The apical to basolateral direction and the basolateral to apical direction need to be done at the same time. The plates were incubated at 37° C. for 2 hours. At the end of the incubation, 50 μL samples from donor sides (apical compartment for Ap→B1 flux, and basolateral compartment for B1→Ap) and receiver sides (basolateral compartment for Ap→B1 flux, and apical compartment for B1→Ap) were transferred to wells of a new 96-well plate, followed by the addition of 4 volume of acetonitrile containing IS (100 nM alprazolam, 200 nM Caffeine and 100 nM tolbutamide). Samples were vortexed for 10 minutes, 50 μL samples were transferred to wells of a new 96-well plate, followed by the addition of 50 μL Hepes and 200 μL IS. A11 samples were vortexed for 10 minutes, and then centrifuged at 3,220 g for 40 minutes. An aliquot of 150 μL of the supernatant was mixed with an appropriate volume of ultra-pure water before LC-MS/MS analysis.
Data analysis: All calculations were carried out using Microsoft Excel. Peak areas were determined from extracted ion chromatograms. […]

[2] = In vivo PK study in male CD1 mice; details: for AUC(0-t): read-out: AUCLast Mean; for clearance: read-out: Mouse CL; for Vd: read-out: Mouse Vss
Protocol: (§1) The studies were conducted in male Sprague Dawley rats, three rats per group, or male CD1 mice, three mice per group. Compounds were dosed 1.0 mg/Kg i.v. (vehicle ethanol: % PEG400 in deionized water, in proportions suitable for dosing a clear solution) and 3.0 mg/kg or 10 mg/kg p.o. (vehicle: 1% methyl cellulose: 1,500 cP in DI water (w/v)). A11 animals had free access to food and water. Rat i.v. PK time points: Plasma: 0.083, 0.25, 0.5, 1, 2, 4, 8 and 24 h; Rat p.o. PK time points: Plasma: 0.25, 0.5, 1, 2, 4, 8 and 24 h. Mouse i.v. PK time points: Plasma: 0.083, 0.25, 0.5, 1, 2, 4, 8, 24, and 48 h; Mouse p.o. PK time points: Plasma: 0.25, 0.5, 1, 2, 4, 8, 24, and 48 h. Concentrations of compound in the plasma samples were analyzed using a LC-MS/MS method. WinNonlin (Phoenix™, version 6.1) or other similar software was used for pharmacokinetic calculations.

[3] = In vivo PK study in male Sprague Dawley rats; details: for clearance / half-life / Vd / bioavailability / C0 / AUC(0-inf) / AUC(0-t) / Cmax / Tmax: male, Sprague Dawley, plasma; for Rat CL (% Qh) / clearance / half-life / Vd / bioavailability / C0 / AUC(0-inf) / AUC(0-t) / Cmax / Tmax: rat; for clearance: read-out: Rat CL; for Vd: read-out: Rat Vss; for AUC(0-inf): read-out: AUCInf Mean; for AUC(0-t): read-out: AUCLast Mean
Protocol: as §1

[4] = Hepatocyte Stability Assay, mouse; as to all read-outs here: tested at 1 µM; format: in vitro ADME; details: for Suspension mou. heps Clint (% Qh): suspension mouse hepatocytes; for Mouse hepatocyte clearance: mouse hepatocytes
Protocol: Example 7: Hepatocyte Stability Assay
• Preparation of working solutions: 10 mM stock solutions of test compound and positive control were prepared in DMSO. In separate conical tubes, the 10 mM solution of test compound and the positive control were diluted to 100 μM by combining 198 μL of 50% acetonitrile/50% water and 2 μL of 10 mM stock.
Data Analysis: All calculations were carried out using Microsoft Excel. Peak areas were determined from extracted ion chromatograms. In vitro half-life (t1/2) of parent compound was determined by regression analysis of the percent parent disappearance vs. time curve.
The in vitro half-life (in vitro t1/2) was determined from the slope value:
Conversion of the in vitro t1/2 (in min) into the in vitro intrinsic clearance (in vitro CLint, in μL/min/1×10^6 cells) was done using the following equation (mean of duplicate determinations):
V=incubation volume(0.2 mL);
N=number of hepatocytes per well(0.1×10^6 cells).

[5] = Caco-2, pH 7.4, +0.5% BSA, read-out: Caco 2 apparent permeability Papp (A−B)
[6] = Caco-2, pH 7.4, +0.5% BSA, read-out: Caco 2 apparent permeability Papp (B−A)
[7] = Caco-2, pH 7.4, apical to basolateral, read-out: Caco2 Papp (AB)
[8] = Caco-2, pH 7.4, basolateral to apical, read-out: Caco2 Papp (BA)
[9] = male, CD1, mouse, plasma, mice, 1 mg/kg IV
[10] = male, CD1, mouse, plasma, mice, 1 mg/kg IV, read-out: T1/2 Mean (converted)
[11] = male, CD1, mouse, plasma, mice, 10 mg/kg PO
[12] = male, CD1, mouse, plasma, mice, 10 mg/kg PO, read-out: Bioavailability
[13] = male, CD1, plasma, intravenous, 1 mg/kg, in vivo DMPK profile, mouse
[14] = male, CD1, plasma, intravenous, 1 mg/kg, in vivo DMPK profile, mouse, read-out: Mouse T1/2 (converted)
[15] = male, CD1, plasma, oral, 10 mg/kg, in vivo DMPK profile, mouse, read-out: Mouse % F
[16] = intravenous, 1 mg/kg, in vivo DMPK profile
[17] = intravenous, 1 mg/kg, in vivo DMPK profile, read-out: Rat T1/2 (converted)
[18] = oral, 3 mg/kg, in vivo DMPK profile, read-out: Rat % F
[19] = rats, 1 mg/kg IV, read-out: T1/2 Mean (converted)
[20] = rats, PO, dosage of 3 mg/kg, read-out: Bioavailability

In the case of `CC(C)(O)Cn1cnc2c(-c3cccnc3)nc(-c3ccc(C(F)(F)F)nc3)cc2c1=O` [Compound 9], the Papp A→B at 2 h, 1 μM [1, 5] is reported as 9.6 ×10⁻⁶ cm/s, the Papp B→A at 2 h, 1 μM [1, 6] is reported as 25 ×10⁻⁶ cm/s and the Papp A→B at 2 h, 1 μM [1, 7] is reported as 2 to 10 ×10⁻⁶ cm/s. The Papp B→A at 2 h, 1 μM [1, 8] was over 10 ×10⁻⁶ cm/s, the “Mouse CL (% Qh)” value ([2]; in vivo DMPK profile, mouse) was 3.85 % Qh and the AUC(0-t) [2, 9] was 4880 ng·h/mL. It also gave a half-life [2, 10] of 5.37 h, a Cmax [2, 11] of 1470 ng/mL and a Tmax [2, 11] of 5.67 h. For the same molecule, the AUC(0-inf) ([2]; male, CD1, mouse, plasma, mice, 10 mg/kg PO, read-out: AUCInf Mean) was 34200 ng·h/mL, the bioavailability [2, 12] was 70.3% and the clearance [2, 13] was 3.4 mL/min/kg. For the same molecule, the half-life [2, 14] was 5.4 h, the Vd [2, 13] was 1.9 L/kg and the bioavailability [2, 15] was 70.3%. The “CI Mean” value ([2]; mice, 1 mg/kg IV) was 57 mL/min/kg, the “Rat CL (% Qh)” value ([3]; in vivo DMPK profile) was 5.8 % Qh and the clearance [3, 16] was 4.1 mL/min/kg. The half-life [3, 17] was 5.4 h, the Vd [3, 16] was 1.75 L/kg and the bioavailability [3, 18] was 77%. The “Suspension mou. heps Clint (% Qh)” value [4] was under 33 % Qh.

For `C[C@H](n1cnc2c(-c3cnn(C)c3)nc(-c3ccc(Cl)cc3)cc2c1=O)C(C)(C)O` [Compound 30], the Papp A→B at 2 h, 1 μM [1, 7] was 2 to 10 ×10⁻⁶ cm/s, the Papp B→A at 2 h, 1 μM [1, 8] was under 2 ×10⁻⁶ cm/s and the C0 [2, 9] was 457 ng/mL. It also gave an AUC(0-t) [2, 9] of 6380 ng·h/mL, a half-life [2, 10] of 8.6 h and a Cmax [2, 11] of 2160 ng/mL. The Tmax [2, 11] was 8 h, the AUC(0-t) [2, 11] was 72800 ng·h/mL and the bioavailability [2, 12] was 114%. The “CI Mean” value ([2]; mice, 1 mg/kg IV) was 43.3 mL/min/kg, the C0 ([3]; rats, 1 mg/kg IV) was 311 ng/mL and the AUC(0-inf) ([3]; rats, 1 mg/kg IV) was 2030 ng·h/mL. For the same molecule, the AUC(0-t) ([3]; rats, 1 mg/kg IV) was 2010 ng·h/mL, the half-life [3, 19] was 3.62 h and the Cmax ([3]; rats, PO, dosage of 3 mg/kg) was 276 ng/mL. The Tmax ([3]; rats, PO, dosage of 3 mg/kg) was 3.33 h, the AUC(0-t) ([3]; rats, PO, dosage of 3 mg/kg) was 3250 ng·h/mL and the bioavailability [3, 20] was 53.9%. The “CI Mean” value ([3]; rats, 1 mg/kg IV) was 143 mL/min/kg and the Mouse hepatocyte clearance [4] was “++ (“++” indicates a CLint between 20 and 50 mL/min/Kg)”.

Work on `C[C@@H](CO)n1cnc2c(-c3cccnc3)nc(-c3ccc(C(F)(F)F)cn3)cc2c1=O` [Compound 46, (S)-3-(1-hydroxypropan-2-yl)-8-(pyridin-3-yl)-6-(5-(trifluoromethyl)pyridin-2-yl)pyrido[3,4-d]pyrimidin-4(3H)-one] yielded a Papp A→B at 2 h, 1 μM [1, 5] of 12.6 ×10⁻⁶ cm/s, a Papp B→A at 2 h, 1 μM [1, 6] of 16.4 ×10⁻⁶ cm/s and a Papp A→B at 2 h, 1 μM [1, 7] of over 10 ×10⁻⁶ cm/s. The Papp B→A at 2 h, 1 μM [1, 8] was over 10 ×10⁻⁶ cm/s, the “Mouse CL (% Qh)” value ([2]; in vivo DMPK profile, mouse) was 2 % Qh and the C0 [2, 9] was 470 ng/mL. For the same molecule, the AUC(0-t) [2, 9] was 8400 ng·h/mL, the half-life [2, 10] was 15.7 h and the Cmax [2, 11] was 2370 ng/mL. The AUC(0-t) [2, 11] was 67700 ng·h/mL, the bioavailability [2, 12] was 80.6% and the half-life ([2]; male, CD1, mouse, plasma, mice, 10 mg/kg PO, read-out: T1/2 Mean (converted)) was 8 h. The clearance [2, 13] was 1.8 mL/min/kg, the half-life [2, 14] was 15.7 h and the Vd [2, 13] was 2.3 L/kg. For the same molecule, the bioavailability [2, 15] was 80.6%, the “CI Mean” value ([2]; mice, 1 mg/kg IV) was 29.3 mL/min/kg and the “Rat CL (% Qh)” value ([3]; in vivo DMPK profile) was 9 % Qh. For the same molecule, the clearance [3, 16] was 6.7 mL/min/kg, the half-life [3, 17] was 5.6 h and the Vd [3, 16] was 3.1 L/kg. It also gave a bioavailability [3, 18] of 89%, a C0 ([3]; rats, 1 mg/kg IV) of 301 ng/mL and an AUC(0-inf) ([3]; rats, 1 mg/kg IV) of 2490 ng·h/mL. The AUC(0-t) ([3]; rats, 1 mg/kg IV) was 2350 ng·h/mL, the half-life [3, 19] was 5.65 h and the Cmax ([3]; rats, PO, dosage of 3 mg/kg) was 462 ng/mL. It also gave a Tmax ([3]; rats, PO, dosage of 3 mg/kg) of 3.33 h, an AUC(0-t) ([3]; rats, PO, dosage of 3 mg/kg) of 6280 ng·h/mL and a bioavailability [3, 20] of 89%. For the same molecule, the half-life ([3]; rats, PO, dosage of 3 mg/kg, read-out: T1/2 Mean (converted)) was 5.73 h, the “CI Mean” value ([3]; rats, 1 mg/kg IV) was 112 mL/min/kg and the Mouse hepatocyte clearance [4] was “++ (“++” indicates a CLint between 20 and 50 mL/min/Kg)”. The “Suspension mou. heps Clint (% Qh)” value [4] was under 33 % Qh.
